Data set [1] is described as follows: LogP value in octanol/water. To be noted: for logP: octanol/water.
A short description of data set [2]: Pour point observation according to ASTM D-97. The data set is classed as physicochemical. The text has this:
A number of working examples were composed and tested for flow indicative of solidification point depression (e.g., pour point temperatures). The compositions tested herein are said to “pour or flow” at the indicated temperature when the PIC of each working example, vertically at rest on a substantially horizontal surface the cylindrical container (radius 1 inch, height 2 inches), flows observably within about 10 seconds when tipped to a substantially horizontal position. This amount of flow is known to be sufficient to indicate that the composition is pourable or pumpable for use in the field, where such concentrates are applied to one or more crude oil transportation or storage systems. The flowing samples are said to have a pour point at temperatures where the flow is observed. The pour point is above the solidification temperature for a given sample. The effect on pour point was observed according to ASTM D-97 test method (including storage for a half hour in a freezer set the associated temperature prior to observation for pour or flow).
The effect on pour point was observed according to ASTM D-97 test method (storage for at least one half hour in a freezer set at a specific temperature (e.g., −60° C.)). The specific low Log P molecules, amounts thereof, amounts of PI polymer, with the balance comprising a refined petroleum distillate or solvent such as HAN; and pour point observations according to ASTM D-97 are listed in Table 2 below.
A comparison of pour points was made between control samples having no low Log P molecules and samples including low Log P molecules to determine the total amount of pour point depression.
The relative amounts of pour point depression of PICs having combination nonyl phenol formaldehyde resin and alpha olefin/maleic anhydride (OMAC) copolymer PIs (specifically OMAC amide polymers), were tested by the ASTM D-97 method. A comparison of pour points was made between control samples having no low Log P molecules and samples including low Log P molecules to determine the total amount of pour point depression.
A low Log P ether molecules was tested for pour point depression in various PICs. The 2-methoxy ethanol was tested in various amounts in PICs and in PICs having various amounts of PI polymer (alkyl phenol formaldehyde resin) therein.

[3] abbreviates: compounds of table 1 tested for pour point and freezing point.

Where two headings read alike, the source gives them in different places.

For the compound `CCOCCO`, the logP (commonly a log measure of how a compound divides between an organic and an aqueous phase) in data set [1] was -0.05.
`CC1COC(=O)O1` (stereo not shown) displayed a log partition coefficient (logP) in data set [1] of 0.37.
For `O=C1CCCCN1`, the logP in data set [1] was determined as 0.33.
Regarding `CCCCOCCO`, the log partition coefficient (logP) in data set [1] (LogP, Table 1) was 1.01.
In data set [1], `O=C1OCCO1` returned a logP of 0.01.
Turning to `CN1CCCC1=O`, the logP in data set [1] amounted to 0.07.
As to `CN1CCCCC1=O`, the logP in data set [1] was 0.57.
Turning to `CNC(=O)NC`, in data set [1], the logP was -0.25.
Compound `COCC(C)OC(C)=O` (stereo not shown) showed a logP in data set [1] of 0.73.
On to 2-methoxy ethanol, for which the logP in data set [1] (Table 1) is −0.43. Further, in data set [1] (text b150), the Log P (commonly a log measure of how a compound divides between an organic and an aqueous phase) is on record as −0.43. In addition, the “suitability as pour point depressant in PIC compositions” value (“suitability as pour point depressant” below) in data set [2] (setting [3]) was “showed promise as pour point depressants”. The “lowered the pour point by” value in data set [2] (versus the PIC of working example 28) is “about 90 °C”.
Regarding `CC(O)CO` (stereo not shown) [1,2-propanediol], the “suitability as pour point depressant” value in data set [2] (setting [3]) is “showed promise as pour point depressants”.
In the case of `C1COCCO1` [1,4-dioxane], the “suitability as pour point depressant” value in data set [2] is “showed promise as pour point depressants”.
Regarding `CCCCC(CC)CO` (stereo not shown) [2-Ethyl Hexanol, 2-ethyl hexanol], the logP in data set [1] and in data set [1] (Table 1) was 2.87 throughout.
Take `O=C1CCCN1` [2-Pyrollidone, 2-pyrrolidone]: the lipophilicity (logP) in data set [1] is -0.18; in data set [1] (Table 1), −0.18. Further, the “suitability as pour point depressant” value in data set [2] (setting [3]) was “showed promise as pour point depressants”.
For `O=C1COCCN1` [3-Ketomorpholine, 3-ketomorpholine], the logP is -0.49 in data set [1] and −0.49 in data set [1] (Table 1).
In turn, `O=C1CCCO1` [Butryolactone, butyrolactone] came in with a logP in data set [1] (LogP, Table 7, of the low LogP molecule type) of -0.59. Moreover, the “suitability as pour point depressant” value in data set [2] is listed as “showed promise as pour point depressants”.
Consider `CC(C)CO` [Isobutanol], for which, in data set [1], the logP was 0.8.
As for `CC(C)O` [Isopropanol], in data set [2] (setting [3]), the “suitability as pour point depressant” value is listed as “showed promise as pour point depressants”.
Take `CO` [Methanol]: in data set [1], the logP was -0.32. In data set [1] (Table 1), this compound registered a logP of −0.32. Also, in data set [2], the “pour point depressed by” value was 70 °C and the “suitability as pour point depressant” value is “showed promise as pour point depressants”.
As for `CN(C)CCO` [dimethylethanolamine], the “suitability as pour point depressant” value in data set [2] (setting [3]) was “showed promise as pour point depressants”.
Take `O=C1CCCO1` [drawing 12]: the logP in data set [1] (Table 1) is −0.57.
`CN(C)CCO` [drawing 17] showed a logP in data set [1] (LogP, Table 1) of -0.29.
As for `C1COCCO1` [drawing 23], the logP in data set [1] is -0.23.
